Measured values taken from US20260215427A1, “NON-BIPYRIDYL SALT HERBICIDE, PREPARATION METHOD THEREFOR, AND USE THEREOF” (priority 2022, published 2026).

What was measured:
Bermuda grass [1] = assay: Herbicidal performance of the compound of formula 3, leaf spray, diquat as positive control; format: in vivo; conditions: air and sunlight
Description: Under air and sunlight, the compound of formula 3 of the present invention was sprayed on the surface of leaves, with herbicide diquat as a positive control. The diameter of the observation range was 10 cm.

mice [2] = assay: Transmission electron microscopy of main organs 48 hours after intraperitoneal injection in mice; format: in vivo; conditions: 0.19 mmol/kg intraperitoneal
Experimental: 48 hours after intraperitoneal injection of 0.19 mmol/kg of paraquat or the compound of formula 2, transmission electron microscopy samples of the lung, liver, kidney, and heart were collected. The black arrow indicated mitochondrial damage, and the electron microscopy scale of the heart group was 200 nm, and the electron microscope scale of other groups was 100 nm.

Hep G2 cells [3] = assay: Apoptosis, Annexin V-FITC and propidium iodide staining; format: cell-based; conditions: 24 hours of incubation
Description: (§1) The data was expressed as + SEM. *p<0.05, p<0.05, **p<0.01, ***p<0.001, ****p<0.0001.

COS-7 cells [4] = assay: as above; format: cell-based; conditions: 24 hours of incubation
Description: as §1

A549 cells [5] = assay: as above; format: cell-based; conditions: 24 hours of incubation
Description: as §1

Arabidopsis thaliana [6] = assay: Herbicidal mechanism: LC-MS, chlorophyll and photosystem parameters, electron microscopy after spraying; format: in vivo
[7] = Direct cytotoxicity, cell viability and IC50; format: cell-based; conditions: 24 hours
Description: (§2) PQ is rapidly absorbed and distributed to the lungs, kidneys, liver, and muscles after entering the human body. Death caused by ingestion of PQ is usually due to multiple organ failure, such as pulmonary edema, kidney and liver failure. Therefore, lung cells (A549 cells), kidney cells (COS-7), and liver cells (Hep G2) were selected to evaluate the direct cytotoxicity of diene diamine.

Hep G2 cells [8] = assay: Direct cytotoxicity, cell viability and IC50; format: cell-based; conditions: for cell viability: Hep G2, co-culture 24 hours, concentration gradient
Description: as §2

COS-7 cells [9] = assay: Direct cytotoxicity, cell viability and IC50; format: cell-based; conditions: for cell viability: COS-7, co-culture 24 hours, concentration gradient
Description: as §2

A549 cells [10] = assay: Direct cytotoxicity, cell viability and IC50; format: cell-based; conditions: for cell viability: A549, co-culture 24 hours, concentration gradient
Description: as §2

Hep G2 cells [11] = assay: Intracellular ROS levels, DCF fluorescence, flow cytometry; format: cell-based; conditions: 100 μM, 18 hours
Experimental: (§3) The above three types of cells were exposed to 100 μM PQ (100) and 100 μM of the compound of formula 2 and incubated for 18 hours, and the intracellular reactive oxygen species (ROS) levels were quantified using flow cytometry. Intracellular ROS levels were measured using DCF fluorescence (n=6).

COS-7 cells [12] = assay: as above; format: cell-based; conditions: 100 μM, 18 hours
Experimental: as §3

A549 cells [13] = assay: as above; format: cell-based; conditions: 100 μM, 18 hours
Experimental: as §3

Arabidopsis thaliana [14] = assay: Herbicidal performance, leaf spray under air and sunlight; format: in vivo; conditions: for state of leaves 24 hours after spraying: various concentrations (1, 2, 4, 8 times PQ equivalent), air and sunlight
Description: (§4) As is well-known, Bermuda grass, Arabidopsis thaliana, and Acorus calamus are naturalized green weeds in most parts of the world and are also invasive grasses. Photosynthesis occurs throughout their entire leaves and bundles. […] Therefore, Bermuda grass, Acorus calamus, and Arabidopsis thaliana were selected as plant models to evaluate the herbicidal performance of the compounds in the present invention.
(§5) Under air and sunlight, the compound of formula 2 of the present invention was sprayed on the leaf surface at concentrations of 1, 2, 4, and 8 times the PQ equivalent, respectively. Paraquat herbicide was used as the positive control, and physiological saline was used as the blank control group. The diameter of the observation range was 8 cm.

Bermuda grass [15] = assay: as above; format: in vivo; conditions: for state of leaves 24 hours after spraying: various concentrations (1, 2, 4, 8 times PQ equivalent), air and sunlight
Description: as §4, §5

Acorus calamus = assay: as above; format: in vivo; conditions: for state of leaves 24 hours after spraying: various concentrations (1, 2, 4, 8 times PQ equivalent), air and sunlight
Description: as §4, §5

mice [16] = assay: Acute toxicity test and LD50 determination in mice, intraperitoneal injection; format: in vivo
Experimental: (§6) In order to evaluate the safety of compound 2 of the present invention in vivo, acute toxicity tests were conducted on mice. Firstly, the LD50 of diene diamine in mice was measured. […] The toxicity of diene diamine in mice is low and the safety is high.

[17] = as above; format: in vivo; conditions: mouse, in vivo, ip; mice, intraperitoneal injection, seventh day
Experimental: as §6

[18] = Conversion of the compound of formula 2 to PQ under lighting and air conditions in physiological saline; format: physicochemical; conditions: air; for Yield (conversion to PQ): darkness, 72 h; for Yield (conversion rate to PQ): natural light, 24 h
mice [19] = assay: Organ indices and biochemical indicators 48 hours after intraperitoneal injection in mice; format: in vivo; conditions: for levels of SOD and CAT in lung tissue / serum levels of TNF-α, IL-B, IL-6, AST, ALT, SCr, BUN, and uric acid: 50 mg/kg paraquat or same dose, 48 hour; for lung, liver, and kidney indices compared with the control group / cardiac index: 50 mg/kg paraquat or same molar dose, 48 hours; for cardiac index: among the three groups
Description: P<0.05 is considered statistically significant, with 10 mice per group (n=10).
However, no significant differences in these biochemical indicators were detected after intraperitoneal injection of the compound of formula 2 diene diamine at the same molar concentration.

mice [20] = assay: Damage of major organs (histopathology) 48 hours after intraperitoneal injection in mice; format: in vivo; conditions: 48 hours after intraperitoneal administration
Description: The data is expressed as mean±standard error, with 6 mice per group (n=6), and P<0.05 indicates statistically significant differences. Scale bar: 50 μm.

mice [21] = assay: Survival rate and body weight of mice after intraperitoneal injection; format: in vivo; conditions: 0.19 mmol/kg intraperitoneal
mice [22] = assay: PQ-induced lethality in mice, single intraperitoneal injection, dose and timing finding; format: in vivo
Experimental: Firstly, the optimal dose and timing for PQ-induced lethality in mice were determined through single intraperitoneal injection at doses of 20, 30, 40, 50, and 60 (mg/kg). […] Therefore, 50 mg/kg was chosen as the optimal dose. The mouse tissue samples were collected 48 hours after PQ administration.

humans = conditions: background data; cited from earlier work
[23] = 1200 mg/kg intraperitoneal, 8 mice
[24] = 25 °C, listed as diene diamine compound
[25] = 300 mg/kg intraperitoneal, 8 mice
[26] = 600 mg/kg intraperitoneal, 8 mice
[27] = 900 mg/kg intraperitoneal, 8 mice
[28] = 1050 mg/kg intraperitoneal, 8 mice

C1=CCN2CCN3CC=CCC3C2C1 (stereo not drawn) [compound of formula 3, 1,4,6,7,9,12,12a, 12b octahydrodipyridin [1,2-a: 2′, 1′-c]pyrazine]
weed control effect relative to diquat (Bermuda grass [1]): comparable to that of diquat | state of leaves 3 days after spraying (Bermuda grass [1]; concentration not specified): began to wither | state of leaves after 5 days (Bermuda grass [1]; concentration not specified): completely withered

CN1CC=C(C2=CCN(C)CC2)CC1 [compound of formula 2, 1,1′-dimethyl-1,1′, 2,2′, 3,3′, 6,6′-octahydro-4,4′-bipyridine]
mitochondrial structure in lung, liver, kidney, and heart tissues (transmission electron microscopy) (mice [2]): No significant mitochondrial structural damage | apoptosis rate compared to the PQ group (Hep G2 cells [3]): significantly reduced | apoptosis rate compared to the PQ group (COS-7 cells [4]): significantly reduced | apoptosis rate compared to the PQ group (A549 cells [5]): significantly reduced | electron microscopy findings after 8 hours (Arabidopsis thaliana [6]): chloroplast stroma lysis, swelling of thylakoids and mitochondrial cristae | electron microscopy findings after 24 hours (Arabidopsis thaliana [6]): rupture of mesophyll cell nuclei, mitochondria, and chloroplast envelopes | chlorophyll content, maximum fluorescence quantum yield of PSII, Fv/Fm value, and SPAD (Arabidopsis thaliana [6]; natural sunlight and air): significant decreases | IC50 ([7]; African green monkey, Cos-7 cells): 1570 µM | IC50 ([7]; human, A549 cells): 5770 µM | IC50 ([7]; human, hep G2 cells): 1360 µM | cell viability (Hep G2 cells [8]): no significant changes in cell viability | IC50 value relative to the PQ treatment group (Hep G2 cells [8]; Hep G2 cells): increased by dozens of times | cell viability (COS-7 cells [9]): no significant changes in cell viability | IC50 value relative to the PQ treatment group (COS-7 cells [9]; COS-7 cells): increased by dozens of times | cell viability (A549 cells [10]): no significant changes in cell viability | IC50 value relative to the PQ treatment group (A549 cells [10]; A549 cells): increased by dozens of times | intracellular ROS production (Hep G2 cells [11]): no significant changes | intracellular ROS production (COS-7 cells [12]): no significant changes | intracellular ROS production (A549 cells [13]): no significant changes | weed control effect compared with PQ (Arabidopsis thaliana [14]; same or twice the dose of PQ): slightly delayed weed control effect | state of leaves 24 hours after spraying (Arabidopsis thaliana [14]): began to wither | weed control effect compared with PQ (Bermuda grass [15]; same or twice the dose of PQ): slightly delayed weed control effect | state of leaves 24 hours after spraying (Bermuda grass [15]): began to wither | weed control effect compared with PQ (Acorus calamus; same or twice the dose of PQ): slightly delayed weed control effect | state of leaves 24 hours after spraying (Acorus calamus): began to wither | deaths (mice [16]; [23]): Eight mice died | survival (mice [16]; 300 and 600 mg/kg intraperitoneal, third day after administration): all mice survived | deaths (mice [16]; 900 and 1050 mg/kg intraperitoneal, respectively, 8 mice per dose): Three mice died | LD50 at 7 day [17]: 1000 mg/kg | Yield (conversion to PQ) ([18]; 25 °C): 0% | Yield (conversion to PQ) [18, 24]: hardly converted to PQ | Yield (conversion rate to PQ) ([18]; 25 °C): 30% | Yield (conversion rate to PQ) [18, 24]: about 30% | Yield (conversion rate to PQ) ([18]; 40 °C): 63% | Yield (conversion rate to PQ) ([18]; 40 °C, listed as diene diamine compound): about 63% | levels of SOD and CAT in lung tissue (mice [19]): no significant changes | serum levels of TNF-α, IL-B, IL-6, AST, ALT, SCr, BUN, and uric acid (mice [19]): no significant changes | lung, liver, and kidney indices compared with the control group (mice [19]): no statistical difference | cardiac index (mice [19]): no statistical difference | pathological damage of major tissues (lung, liver, kidney, heart) (mice [20]): no significant pathological damage | weight of the mice (mice [21]): continued to steadily increase | survival (mice [21]; after 168 hours): all mice in the group of the compound of formula 2 survived

C[n+]1ccc(-c2cc[n+](C)cc2)cc1.[Cl-].[Cl-] [PQ, 1,1-dimethyl-4,4′-bipyridinium dichloride, reference compound]
mitochondrial structure in lung, liver, kidney, and heart tissues (transmission electron microscopy) (mice [2]): mitochondrial damage such as swelling, vacuolization, blurring, or fragmentation | cell viability (Hep G2 cells [8]): direct cytotoxic effects | IC50 (Hep G2 cells [8]; hep G2 cells, 24 hours): 131 µM | cell viability (COS-7 cells [9]): direct cytotoxic effects | IC50 (COS-7 cells [9]; Cos-7 cells, 24 hours): 114 µM | cell viability (A549 cells [10]): direct cytotoxic effects | IC50 (A549 cells [10]; A549 cells, 24 hours): 322 µM | intracellular ROS production (Hep G2 cells [11]): significant increase in ROS production | intracellular ROS production (COS-7 cells [12]): significant increase in ROS production | intracellular ROS production (A549 cells [13]): significant increase in ROS production | state of leaves 24 hours after spraying (Arabidopsis thaliana [14]): began to wither | state of leaves 24 hours after spraying (Bermuda grass [15]): began to wither | state of leaves 24 hours after spraying (Acorus calamus): began to wither | Mortality, n (%) Day 1 (mice [16]; [25]): 0 (0) n (%) | Mortality, n (%) Day 7 (mice [16]; [25]): 0 (0) n (%) | Mortality, n (%) Day 1 (mice [16]; [26]): 0 (0) n (%) | Mortality, n (%) Day 7 (mice [16]; [26]): 0 (0) n (%) | Mortality, n (%) Day 1 (mice [16]; [27]): 3 (37.5) n (%) | Mortality, n (%) Day 7 (mice [16]; [27]): 3 (37.5) n (%) | Mortality, n (%) Day 1 (mice [16]; [28]): 3 (37.5) n (%) | Mortality, n (%) Day 7 (mice [16]; [28]): 3 (37.5) n (%) | Mortality, n (%) Day 1 (mice [16]; [23]): 8 (100) n (%) | Mortality, n (%) Day 7 (mice [16]; [23]): 8 (100) n (%) | lung injury score (mice [22]; 24 hours after PQ administration): significant increase | time point of the highest lung injury score (mice [22]; compared to other time points): 48 h | survival time (mice [22]; single intraperitoneal injection, 20 and 30 mg/kg, all mice): over 168 hours | body weight on the first day (mice [22]; single intraperitoneal injection, 50 or 60 mg/kg): significant weight loss | mortality rate of toxic ingestion incidents (humans): 50-90% | levels of SOD and CAT in lung tissue (mice [19]): significantly decreased | serum levels of TNF-α, IL-B, IL-6, AST, ALT, SCr, BUN, and uric acid (mice [19]): significantly increased | lung, liver, and kidney indices compared with the control group (mice [19]): significantly increased | cardiac index (mice [19]): no statistical difference | pathological damage of major tissues (lung, liver, kidney, heart) (mice [20]): multiple organic damages accompanied by significant inflammation | tissue damage scores of the main organs (mice [20]): significantly higher than those in the control group and the diene diamine group | weight of the mice (mice [21]): continued to decrease | mice died (mice [21]; within 112 hours after administration): 100%
